“And” between values parts separate entries of the source, which are not always exact repeats. Identical values can stand only once.
Assays:
Fmr1 KO mice [1] = experiment: Sociability: three chamber partition test; assay type: in vivo; design: unit not given here; details: for Sociability: Mean Diff., F_KO-V vs. F_ treated KO (Dunnett) / Sociability: Mean Diff., F_KO-V vs. N_ treated KO (Dunnett): against F_KO-V; for Sociability: Mean Diff., F_KO-V vs. F_ treated KO (Dunnett): Sumatriptan 20, Oxitriptan 40, Ergoloid 4, Ergoloid 2 + Oxitriptan 40 mg/kg; for Sociability, F_KO / Sociability, N_KO: individual animal values
Protocol: (§1) Fmr1 KO mice backcrossed to the FVB strain and WT littermates were used during experiments. TransnetXY Automated Genotyping (www.transnetyx.com/). TRANSNETYX, INC., 8110 Cordova Rd. Suite 119, Cordova, TN 38016, USA was used for genotyping. The animals were pretreated for 14 days. The active ingredients of Sumatriptan and Ergoloid were in a water carrier, whereas oxitriptan was in a methanol carrier.
(§2) The mice were housed in plastic cages (35×30×12 cm), 5 in each. The room temperature (21±2° C.),relative humidity (55±5%), a 12-h light-dark cycle (lights on 7 a.m.-7 p.m.) and air exchange (16 times per h) were automatically controlled. The animals had free access to commercial food pellets and water. Testing was conducted during the light phase. Ten mice per treatment group were used for the AGS experiments. Experiments were conducted in line with the requirements of the UK Animals (Scientific Procedures) Act, 1986.
(§3) All experiments were conducted with the experimenter blind to genotype and drug treatment. Separate investigators prepared and coded dosing solutions, allocated the mice to the study treatment groups, dosed the animals, and collected the Audiogenic Seizure data.
(§4) Behavior testing was conducted at 2 weeks. The behavioral tests were as follows: 1. Hyperactivity: Open field; 2. Stereotypy: Self-grooming; 3. Sociability: Three chamber partition test; 4. Memory and Learning: Novel Object Recognition; 5. Anxiety: hyponeophagia; and 6. Test of daily living: marble burying
For sociability a three chamber partition test was utilized. The three-chamber paradigm test known as Crawley's sociability and preference for social novelty protocol has previously been successfully employed to study social affiliation and social memory in several inbred and mutant mouse lines. The main principle of the test was based on the free choice by a subject mouse to spend time in any of three box's compartments during two experimental sessions, including indirect contact with one or two mice with which it was unfamiliar (Kaidanovich-Beilin 2011).
(§5) The treatment of the mice with OX (Oxitriptan), SU (Sumatriptan), ER (Ergoloid mesylates, also referred to as ergoloid herein) were according to the matrix shown below in Table 1. […]

Fmr1 KO mice [2] = experiment: Open field test (hyperactivity); assay type: in vivo
Protocol: as §1, §2
All experiments were conducted with the experimenter blind to genotype and drug treatment. Separate investigators prepared and coded dosing solutions, allocated the mice to the study treatment groups, dosed the animals, and collected the Audiogenic Seizure data. […]
For hyperactivity, the open field test (OFT) is a common measure of exploratory behavior and general activity in both mice and rats, where both the quality and quantity of the activity can be measured. […]

FMR1 mice = experiment: Behavioral experiments overall (FXS phenotypes); assay type: in vivo
Protocol: as §1, §4
(§6) The treatment of the mice with OX (Oxitriptan), SU (Sumatriptan), ER (Ergoloid mesylates, also referred to as ergoloid herein) were according to the matrix shown below in Table 1.
The experimental procedures described above for Example 1 were used in the following tests, as well as the addition of two further behaviour tests as described below. An SSRI (selective serotonin re-uptake inhibitor) was co-dosed with the ergoloid mesylates and oxitriptan to assess the effect of the ergoloid mesylates and oxitriptan treatment on a subject already receiving SSRI treatment. […]

Fmr1 KO mice [3] = experiment: Test of daily living (marble burying / nesting); assay type: in vivo; design: scale not given here; details: for Tests of daily living: individual animal values
Protocol: as §1, §2, §3, §4
For test of daily living, nesting was assessed as nest building is an innate behavior in rodents, even when raised in laboratory settings. Synthetic and/or natural materials (such as twine, tissue, cotton, paper, and hay) are provided as a gauge of their overall well-being and as an ancillary assessment to predict the possible decline in cognition. Typically, changes in nesting behaviors, such as failure to create a nest, indicate a change in health or welfare. In addition, nesting behavior is sensitive to many environmental and physiological challenges, as well as many genetic mutations underlying pathological disease states (Gaskill 2013).
as §6
The experimental procedures described above for Example 1 were used in the following tests, as well as the addition of two further behaviour tests as described below. An SSRI (selective serotonin re-uptake inhibitor) was co-dosed with the ergoloid mesylates and oxitriptan to assess the effect of the ergoloid mesylates and oxitriptan treatment on a subject already receiving SSRI treatment.

Fmr1 KO mice [4] = experiment: Stereotypy: self-grooming; assay type: in vivo; details: for Stereotypy: Mean 2 (mean of treated KO group): Table 8, KO-V mean 45.40, WT-V 31.60, doses as E19
Protocol: as §1, §2, §3, §4
For stereotypy, self-grooming was assessed. Self-grooming in animals is an innate behaviour that is involved in hygiene maintenance and other physiologically important processes, including thermoregulation, social communication and de-arousal. It is one of the most frequently observed behaviours in awake rodents and has a patterned, sequential organization with characteristic cephalocaudal progression (Kalueff 2016).
as §5

Fmr1 KO mice [5] = experiment: Memory and learning: Novel Object Recognition (NOR); assay type: in vivo; design: unit not given here; details: for NOR: Mean Diff., F_KO-V vs. F_ treated KO (Dunnett) / NOR: Mean 2 (mean of F_ treated KO group): F_ values; for NOR: Mean Diff., F_KO-V vs. F_ treated KO (Dunnett) / NOR: Mean Diff., F_KO-V vs. N_ treated KO (Dunnett): against F_KO-V; for NOR: Mean Diff., F_KO-V vs. F_ treated KO (Dunnett): Sumatriptan 20, Oxitriptan 40, Ergoloid 4, Ergoloid 2 + Oxitriptan 40 mg/kg; for Novel Object Recognition, F_KO / Novel Object Recognition, N_KO: individual animal values
Protocol: as §1, §2, §3, §4
For memory and learning, a novel object recognition (NOR) task was used to evaluate the rodents' ability to recognize a novel object in the environment. […] The task procedure consists of three phases: habituation, familiarization, and test phase (Antunes 2012).
as §5

Fmr1 KO mice [6] = experiment: Anxiety: hyponeophagia test; assay type: in vivo
Protocol: as §1, §2, §3
Behavior testing was conducted at 2 weeks. […]
For anxiety a hyponeophagia test was conducted. […] The amounts ingested then gradually increase until the animal has determined whether the substance is safe and nutritious. […]

[7] = Jacobsen J P R 2016; cited from earlier work
[8] = Table 12, N_ values, F_KO-V mean 81.60, doses as E34
[9] = Table 4, WT-V mean 4.800, KO-V 1.200, doses as E7
[10] = Table 10, KO-V mean 1.200, doses as E25
[11] = Table 11, F_KO-V mean 6.600, doses as E28
[12] = N_ values, against N_WT-V, Sumatriptan 20, Oxitriptan 40, Ergoloid 4, Ergoloid 2 + Sumatriptan 10, Ergoloid 2 + Oxitriptan 40 mg/kg
[13] = against KO-V, Sumatriptan 20, Oxitriptan 40, Ergoloid 4, Ergoloid 2 + Oxitriptan 40 mg/kg
[14] = against WT-V, Sumatriptan 20, Oxitriptan 40, Ergoloid 4, Ergoloid 2 + Sumatriptan 10, Ergoloid 2 + Oxitriptan 40 mg/kg

N[C@@H](Cc1c[nH]c2ccc(O)cc12)C(=O)O [Oxitriptan, 2-amino-3-(5-hydroxy-1H-indol-3-yl)propanoic acid]
Sociability: Mean Diff., F_KO-V vs. F_ treated KO (Dunnett) (Fmr1 KO mice [1]; F_ values): 29.51
Sociability, F_KO (Fmr1 KO mice [1]; F_KO-Oxitriptan (40 mg/kg)): 51 (2×) and 54 and 52 (2×) and 50 (2×) and 53 (2×) and 55
Sociability: Mean Diff., F_KO-V vs. N_ treated KO (Dunnett) (Fmr1 KO mice [1]; N_ values, doses as E34): −17.20
Sociability, N_KO (Fmr1 KO mice [1]; N_KO-Oxitriptan (40 mg/kg)): 98 (2×) and 97 (2×) and 100 (2×) and 99 (2×) and 96
Sociability: Mean 2 (mean of N_ treated KO group) (Fmr1 KO mice [1]; [8]): 98.80
Open Field: Mean Diff., WT-V vs. treated KO (Dunnett) (Fmr1 KO mice [2]; against WT-V, 14 days QD, Sumatriptan 20, 5-HTP 80, EM 4, Ergoloid 2 + Sumatriptan 10, Ergoloid 2 + Oxitriptan 40 mg/kg): −512.4
Effect on FXS phenotypes in the behavioral experiments (Example 1) (FMR1 mice): ameliorates the FXS phenotypes
Tests of daily living (Fmr1 KO mice [3]; KO-Oxitriptan (40 mg/kg)): 5 (9×) and 4
Test of daily living: Mean 2 (mean of treated KO group) (Fmr1 KO mice [3]; [9]): 4.900
Test of daily living: Mean 2 (mean of treated KO group) (Fmr1 KO mice [3]; [10]): 4.900
Stereotypy: Mean 2 (mean of treated KO group) (Fmr1 KO mice [4]): 38.30
NOR: Mean Diff., F_KO-V vs. F_ treated KO (Dunnett) (Fmr1 KO mice [5]): −0.03636
Novel Object Recognition, F_KO (Fmr1 KO mice [5]; F_KO-Oxitriptan (40 mg/kg)): 6 (4×) and 5 (3×) and 9 (2×) and 8 (2×)
NOR: Mean Diff., F_KO-V vs. N_ treated KO (Dunnett) (Fmr1 KO mice [5]; N_ values, doses as E28): −4.218
Novel Object Recognition, N_KO (Fmr1 KO mice [5]; N_KO-Oxitriptan (40 mg/kg)): 10 (4×) and 12 and 14 and 8 (2×) and 15 and 13 and 9
NOR: Mean 2 (mean of F_ treated KO group) (Fmr1 KO mice [5]; [11]): 6.636
Hyponeophagia (Fmr1 KO mice [6]; KO-Oxitriptan (40 mg/kg), individual animal values): 150 and 140 (2×)
half life [7]: 2 h

CNS(=O)(=O)Cc1ccc2[nH]cc(CCN(C)C)c2c1 [Sumatriptan]
Sociability: Mean Diff., F_KO-V vs. F_ treated KO (Dunnett) (Fmr1 KO mice [1]; F_ values): 19.40
Sociability, F_KO (Fmr1 KO mice [1]; F_KO-Sumatriptan (20 mg/kg)): 61 (2×) and 64 and 65 (2×) and 60 (3×) and 63 (2×)
Sociability: Mean Diff., F_KO-V vs. N_ treated KO (Dunnett) (Fmr1 KO mice [1]; N_ values, doses as E34): −16.60
Sociability: Mean Diff., N_WT-V vs. N_ treated KO (Dunnett) (Fmr1 KO mice [1]; [12]): 0.9000
Sociability, N_KO (Fmr1 KO mice [1]; N_KO-Sumatriptan (20 mg/kg)): 99 and 97 (2×) and 103 and 98 and 90 and 102 and 100 and 95 and 101
Sociability: Mean 2 (mean of N_ treated KO group) (Fmr1 KO mice [1]; Table 6, N_WT-V mean 99.10, N_KO-V 83.90, doses as E13): 98.20
Sociability: Mean 2 (mean of F_ treated KO group) (Fmr1 KO mice [1]; Table 12, F_ values, F_KO-V mean 81.60, doses as E34): 62.20
Sociability: Mean 2 (mean of N_ treated KO group) (Fmr1 KO mice [1]; [8]): 98.20
Open Field: Mean Diff., KO-V vs. treated KO (Dunnett) (Fmr1 KO mice [2]; against KO-V, Sumatriptan 20, Oxitriptan 80, Ergoloid 4, Ergoloid 2 + Oxitriptan 40 mg/kg): 846.6
Tests of daily living (Fmr1 KO mice [3]; KO-Sumatriptan (20 mg/kg)): 5 (7×) and 4 (3×)
Test of daily living: Mean 2 (mean of treated KO group) (Fmr1 KO mice [3]; [9]): 4.700
Test of daily living: Mean 2 (mean of treated KO group) (Fmr1 KO mice [3]; [10]): 4.700
Test of daily living: Mean Diff., KO-V vs. treated KO (Dunnett) (Fmr1 KO mice [3]; [13]): −3.500
Test of daily living: Mean Diff., WT-V vs. treated KO (Dunnett) (Fmr1 KO mice [3]; [14]): 0.1000
Stereotypy: Mean 2 (mean of treated KO group) (Fmr1 KO mice [4]): 30.90
Stereotypy: Mean Diff., KO-V vs. treated KO (Dunnett) (Fmr1 KO mice [4]; [13]): 14.50
NOR: Mean Diff., F_KO-V vs. F_ treated KO (Dunnett) (Fmr1 KO mice [5]): −0.2000
Novel Object Recognition, F_KO (Fmr1 KO mice [5]; F_KO-Sumatriptan (20 mg/kg)): 9 (2×) and 5 (2×) and 8 (2×) and 7 (2×) and 4 and 6
NOR: Mean Diff., F_KO-V vs. N_ treated KO (Dunnett) (Fmr1 KO mice [5]; N_ values, doses as E28): −0.7000
NOR: Mean Diff., N_WT-V vs. N_ treated KO (Dunnett) (Fmr1 KO mice [5]; [12]): 6.600
Novel Object Recognition, N_KO (Fmr1 KO mice [5]; N_KO-Sumatriptan (20 mg/kg)): 6 (3×) and 8 (2×) and 9 (3×) and 5 and 7
NOR: Mean 2 (mean of N_ treated KO group) (Fmr1 KO mice [5]; Table 5, N_WT-V mean 13.90, N_KO-V 6.700, doses as E10): 7.300
NOR: Mean 2 (mean of F_ treated KO group) (Fmr1 KO mice [5]; [11]): 6.800
NOR: Mean 2 (mean of N_ treated KO group) (Fmr1 KO mice [5]; Table 11, N_ values, F_KO-V mean 6.600, doses as E28): 7.300
Hyponeophagia: Mean Diff., WT-V vs. treated KO (Dunnett) (Fmr1 KO mice [6]; [14]): −9.200
